How the values were obtained:
bedstraw = experiment: Test B pre/postemergence bedstraw; format: in vivo, Galium aparine
In short: (§1)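 Herbicidal effect was estimated by eye on a ten-point control scale after plants spent twelve to sixteen days in a greenhouse following soil or foliar treatment. Foliar sprays targeted plants at one to four leaves; all doses were formulated in a non-phytotoxic solvent with surfactant.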

blackgrass = experiment: Test B pre/postemergence blackgrass; format: in vivo, Alopecurus myosuroides
In short: as §1

surinam grass = experiment: Test B pre/postemergence surinam grass; format: in vivo, Brachiaria decumbens
In short: as §1

cocklebur = experiment: Test B pre/postemergence cocklebur; format: in vivo, Xanthium strumarium
In short: as §1

corn = experiment: Test B pre/postemergence corn; format: in vivo, Zea mays
In short: as §1

crabgrass = experiment: Test B pre/postemergence crabgrass; format: in vivo, Digitaria sanguinalis
In short: as §1

giant foxtail = experiment: Test B pre/postemergence giant foxtail; format: in vivo, Setaria faberii
In short: as §1

morningglory = experiment: Test B pre/postemergence morningglory; format: in vivo, Ipomoea hederacea
In short: as §1

pigweed = experiment: Test B pre/postemergence pigweed; format: in vivo, Amaranthus retroflexus
In short: as §1

rape = experiment: Test B pre/postemergence rape; format: in vivo, Brassica napus
In short: as §1

soybean = experiment: Test B pre/postemergence soybean; format: in vivo, Glycine max
In short: as §1

sugar beet = experiment: Test B pre/postemergence sugar beet; format: in vivo, Beta vulgaris
In short: as §1

velvetleaf = experiment: Test B pre/postemergence velvetleaf; format: in vivo, Abutilon theophrasti
In short: as §1

wheat = experiment: Test B pre/postemergence wheat; format: in vivo, Triticum aestivum
In short: as §1

wild oat = experiment: Test B pre/postemergence wild oat; format: in vivo, Avena fatua
In short: as §1

purple nutsedge = experiment: Test B pre/postemergence purple nutsedge; format: in vivo, Cyperus rotundus
In short: as §1

[1] = Postemergence, Rate 62 g/ha, scale 0 to 10, 0 is no effect, 10 is complete control
[2] = Postemergence, Rate 125 g/ha, scale of 0 to 10 where 0 is no effect and 10 is complete control
[3] = Preemergence, Rate 250 g/ha, scale 0 (no effect) to 10 (complete control)
[4] = Rate 62 g/ha, Preemergence, scale 0 to 10
[5] = Rate 125 g/ha, Preemergence, scale 0 to 10 (0 no effect, 10 complete control)
[6] = Rate 500 g/ha, Preemergence, scale 0 to 10 (0 no effect, 10 complete control)
[7] = Postemergence, Rate 500 g/ha, scale 0 (no effect) to 10 (complete control)
[8] = Rate 250 g/ha, Postemergence, scale 0 to 10, 0 is no effect, 10 is complete control
[9] = Preemergence, Rate 62 g/ha, scale of 0 to 10 where 0 is no effect and 10 is complete control
[10] = Preemergence, Rate 125 g/ha, scale of 0 to 10 where 0 is no effect and 10 is complete control
[11] = Preemergence, Rate 250 g/ha, scale 0 to 10 (0 no effect, 10 complete control)
[12] = Preemergence, Rate 500 g/ha, scale of 0 to 10 where 0 is no effect and 10 is complete control

COc1ccc(N(C(=O)n2oc(=O)n(C(C)C)c2=O)C(C)C)cc1 [Compound 780]
Plant response rating, Bedstraw (bedstraw; [1]): 0
Bedstraw plant response rating (bedstraw; [2]): 0
Bedstraw plant response rating (bedstraw; [3]): 0
Bedstraw plant response rating (bedstraw; [4]): 0
Bedstraw plant response rating (bedstraw; [5]): 0
Bedstraw plant response rating (bedstraw; [6]): 2
Plant response rating, Blackgrass (blackgrass; [1]): 0
Blackgrass plant response rating (blackgrass; [2]): 2
Blackgrass plant response rating (blackgrass; [7]): 4
Blackgrass plant response rating (blackgrass; [3]): 9
Blackgrass plant response rating (blackgrass; [4]): 2
Blackgrass plant response rating (blackgrass; [5]): 6
Blackgrass plant response rating (blackgrass; [8]): 4
Blackgrass plant response rating (blackgrass; [6]): 9
Plant response rating, B. signalgrass (surinam grass; [1]): 0
B. signalgrass plant response rating (surinam grass; [2]): 5
B. signalgrass plant response rating (surinam grass; [3]): 8
B. signalgrass plant response rating (surinam grass; Rate 62 g/ha, Preemergence, scale 0 (no effect) to 10 (complete control)): 6
B. signalgrass plant response rating (surinam grass; [5]): 6
B. signalgrass plant response rating (surinam grass; [8]): 5
B. signalgrass plant response rating (surinam grass; Rate 500 g/ha, Postemergence, scale 0 to 10, 0 is no effect, 10 is complete control): 5
B. signalgrass plant response rating (surinam grass; [6]): 4
Plant response rating, Cocklebur (cocklebur; [1]): 0
Cocklebur plant response rating (cocklebur; [2]): 0
Cocklebur plant response rating (cocklebur; [7]): 0
Cocklebur plant response rating (cocklebur; [3]): 2
Cocklebur plant response rating (cocklebur; [4]): 0
Cocklebur plant response rating (cocklebur; [5]): 0
Cocklebur plant response rating (cocklebur; [8]): 0
Cocklebur plant response rating (cocklebur; [6]): 2
Plant response rating, Corn (corn; [1]): 0
Corn plant response rating (corn; [2]): 0
Corn plant response rating (corn; [7]): 6
Corn plant response rating (corn; [3]): 6
Corn plant response rating (corn; [4]): 2
Corn plant response rating (corn; [5]): 2
Corn plant response rating (corn; [8]): 3
Corn plant response rating (corn; [6]): 9
Plant response rating, Crabgrass (crabgrass; [1]): 3
Crabgrass plant response rating (crabgrass; [2]): 4
Crabgrass plant response rating (crabgrass; [7]): 7
Crabgrass plant response rating (crabgrass; [3]): 10
Crabgrass plant response rating (crabgrass; [4]): 10
Crabgrass plant response rating (crabgrass; [5]): 10
Crabgrass plant response rating (crabgrass; [8]): 7
Crabgrass plant response rating (crabgrass; [6]): 10
Plant response rating, Giant foxtail (giant foxtail; [1]): 7
Giant foxtail plant response rating (giant foxtail; [2]): 8
Giant foxtail plant response rating (giant foxtail; [7]): 9
Giant foxtail plant response rating (giant foxtail; [3]): 10
Giant foxtail plant response rating (giant foxtail; [4]): 10
Giant foxtail plant response rating (giant foxtail; [5]): 10
Giant foxtail plant response rating (giant foxtail; [8]): 9
Giant foxtail plant response rating (giant foxtail; [6]): 10
Plant response rating, Morningglory (morningglory; [1]): 4
Morningglory plant response rating (morningglory; [2]): 4
Morningglory plant response rating (morningglory; [7]): 8
Morningglory plant response rating (morningglory; [4]): 0
Morningglory plant response rating (morningglory; [5]): 0
Morningglory plant response rating (morningglory; [8]): 7
Morningglory plant response rating (morningglory; [6]): 2
Plant response rating, Redroot pigweed (pigweed; [1]): 0
Redroot pigweed plant response rating (pigweed; [2]): 0
Redroot pigweed plant response rating (pigweed; [7]): 0
Redroot pigweed plant response rating (pigweed; [4]): 0
Redroot pigweed plant response rating (pigweed; [5]): 3
Redroot pigweed plant response rating (pigweed; [8]): 0
Redroot pigweed plant response rating (pigweed; [6]): 6
Plant response rating, Rape (rape; [1]): 0
Rape plant response rating (rape; [2]): 0
Rape plant response rating (rape; [7]): 0
Rape plant response rating (rape; [4]): 0
Rape plant response rating (rape; [5]): 0
Rape plant response rating (rape; [8]): 0
Rape plant response rating (rape; [6]): 6
Plant response rating, Soybean (soybean; [1]): 3
Soybean plant response rating (soybean; [7]): 4
Soybean plant response rating (soybean; [4]): 0
Soybean plant response rating (soybean; [5]): 0
Soybean plant response rating (soybean; [8]): 0
Soybean plant response rating (soybean; [6]): 3
Plant response rating, Sugarbeets (sugar beet; [1]): 0
Sugarbeets plant response rating (sugar beet; [7]): 0
Sugarbeets plant response rating (sugar beet; [4]): 2
Sugarbeets plant response rating (sugar beet; [5]): 2
Sugarbeets plant response rating (sugar beet; [8]): 0
Sugarbeets plant response rating (sugar beet; [6]): 6
Plant response rating, Velvetleaf (velvetleaf; [1]): 0
Velvetleaf plant response rating (velvetleaf; [7]): 4
Velvetleaf plant response rating (velvetleaf; [4]): 0
Velvetleaf plant response rating (velvetleaf; [5]): 3
Velvetleaf plant response rating (velvetleaf; [8]): 4
Velvetleaf plant response rating (velvetleaf; [6]): 5
Plant response rating, Wheat (wheat; [1]): 0
Wheat plant response rating (wheat; [7]): 2
Wheat plant response rating (wheat; [4]): 0
Wheat plant response rating (wheat; [5]): 6
Wheat plant response rating (wheat; [8]): 0
Wheat plant response rating (wheat; [6]): 9
Plant response rating, Wild oats (wild oat; [1]): 0
Wild oats plant response rating (wild oat; [7]): 2
Wild oats plant response rating (wild oat; [4]): 0
Wild oats plant response rating (wild oat; [5]): 0
Wild oats plant response rating (wild oat; [8]): 2
Wild oats plant response rating (wild oat; [6]): 9
Plant response rating, Nutsedge (purple nutsedge; [1]): 0
Nutsedge plant response rating (purple nutsedge; [2]): 0
Nutsedge plant response rating (purple nutsedge; [7]): 4
Nutsedge plant response rating (purple nutsedge; [4]): 0
Nutsedge plant response rating (purple nutsedge; [5]): 0
Nutsedge plant response rating (purple nutsedge; [8]): 4

CCn1ncc(Cn2c(=O)on(C(=O)N(c3ccccc3)C(C)C)c2=O)c1Cl [Compound 683]
Bedstraw plant response rating (bedstraw; [9]): 0
Plant response rating, Bedstraw (bedstraw; [10]): 0
Plant response rating, Bedstraw (bedstraw; [11]): 0
Plant response rating, Bedstraw (bedstraw; [12]): 0
Blackgrass plant response rating (blackgrass; [9]): 1
Plant response rating, Blackgrass (blackgrass; [10]): 3
Plant response rating, Blackgrass (blackgrass; [11]): 7
Plant response rating, Blackgrass (blackgrass; [12]): 9
B. signalgrass plant response rating (surinam grass; [9]): 0
Plant response rating, B. signalgrass (surinam grass; [10]): 0
Plant response rating, B. signalgrass (surinam grass; [11]): 4
Plant response rating, B. signalgrass (surinam grass; [12]): 9
Cocklebur plant response rating (cocklebur; [9]): 0
Plant response rating, Cocklebur (cocklebur; [10]): 0
Plant response rating, Cocklebur (cocklebur; [11]): 0
Plant response rating, Cocklebur (cocklebur; [12]): 0
Corn plant response rating (corn; [9]): 0
Plant response rating, Corn (corn; [10]): 0
Plant response rating, Corn (corn; [11]): 0
Plant response rating, Corn (corn; [12]): 3
Crabgrass plant response rating (crabgrass; [9]): 6
Plant response rating, Crabgrass (crabgrass; [10]): 8
Plant response rating, Crabgrass (crabgrass; [11]): 9
Plant response rating, Crabgrass (crabgrass; [12]): 10
Giant foxtail plant response rating (giant foxtail; [9]): 8
Plant response rating, Giant foxtail (giant foxtail; [10]): 9
Plant response rating, Giant foxtail (giant foxtail; [12]): 10
Morningglory plant response rating (morningglory; [9]): 0
Plant response rating, Morningglory (morningglory; [10]): 0
Plant response rating, Morningglory (morningglory; [12]): 2
Redroot pigweed plant response rating (pigweed; [9]): 0
Plant response rating, Redroot pigweed (pigweed; [10]): 2
Plant response rating, Redroot pigweed (pigweed; [12]): 6
Rape plant response rating (rape; [9]): 0
Plant response rating, Rape (rape; [10]): 0
Plant response rating, Rape (rape; [12]): 0
Soybean plant response rating (soybean; [9]): 0
Plant response rating, Soybean (soybean; [10]): 0
Plant response rating, Soybean (soybean; [12]): 0
Sugarbeets plant response rating (sugar beet; [9]): 0
Plant response rating, Sugarbeets (sugar beet; [10]): 0
Plant response rating, Sugarbeets (sugar beet; [12]): 0
Velvetleaf plant response rating (velvetleaf; [9]): 0
Plant response rating, Velvetleaf (velvetleaf; [10]): 0
Plant response rating, Velvetleaf (velvetleaf; [12]): 0
Wheat plant response rating (wheat; [9]): 0
Plant response rating, Wheat (wheat; [10]): 0
Plant response rating, Wheat (wheat; [12]): 0
Wild oats plant response rating (wild oat; [9]): 0
Plant response rating, Wild oats (wild oat; [10]): 0
Plant response rating, Wild oats (wild oat; [12]): 8
Nutsedge plant response rating (purple nutsedge; [9]): 0
Plant response rating, Nutsedge (purple nutsedge; [10]): 0
Plant response rating, Nutsedge (purple nutsedge; [12]): 0

From US6737383B1, “Herbicidal oxadiazolidines” (priority 1999, dated 2004)
